{"source": "patent US12398128B2", "about": "“Physics-driven discovery of novel small therapeutic compounds for use as a BCL-2 inhibitor” (BAHCESEHIR UNIVERSITESI, priority 2021, dated 2025)", "test_system": "HCT-116 colon cancer cell line", "assay": "MTT cell proliferation assay on HCT-116 cells", "assay_type": "cell-based", "protocol": "For cell culture experiments various cancer cell lines, HCT-116 colon cancer, U87-MG glial tumor, MCF7 breast cancer cell lines were used. Cells were seeded with high glucose DMEM medium (Biosera) supplemented with 10% FBS (Gibco) and 1× penicillin/streptomycin (Multicell). Twenty-four hours prior to molecule treatment, 10,000 cells were seeded into each well of 24-well cell culture plates. Molecules were used by preparing 4 mM stock solution in DMSO (Amresco). For molecule treatment, molecule stock solutions were diluted in DMEM with 10% FBS and added onto cells in each corresponding well. Final concentration of vehicle DMSO was 2% at maximum. Therefore, the vehicle group in experiments only included maximum of 2% DMSO concentration. We calculated the number of cells to be seeded to make sure that none of the cells reaches more than 60% confluency during the treatment period, as higher plate confluency levels would slow down cell proliferation independently from the molecule treatment.\nValues of half-maximal inhibitory concentration were (IC50) determined by MTT cell proliferation assays. Different concentrations of molecules ranging between 10^-9 to 10^-4 M were tested on HCT-116 cell lines with single treatment. 570 nm absorbance values were recorded and IC50 values were calculated by dose response-inhibition curves and nonlinear regression analysis on GraphPad Prism 8 software. For cell proliferation assays we performed five days experiments and repeated experiments at least three times with all cell lines. […] Therefore, three days results were presented. MTT analysis were performed on 24-well plates with initially 1×10^4 cells/well, grown overnight, and then treated with the selected molecules with different concentrations for at least 3 days. Following the initial incubation day, molecules were added and after incubation with MTT at 37° C. for 4 hours, formazan was solubilized with DMSO (Sigma-Aldrich, St. Louis, USA) and absorbance was measured at 570 nm. […] The IC50 value of compound of formula I was determined to be 22 μm (FIG. 1)."}
{"smiles": "O=C(CSc1nc2ccc(N3C(=O)c4ccccc4C3=O)cc2s1)c1ccc(-c2ccccc2)cc1", "note": "[compound of formula I]", "values": [{"measurement": "cell morphology of treated HCT-116 cells", "setting": "HCT-116 cells treated with compound versus vehicle group", "value": "apoptotic cell structures"}, {"measurement": "proliferation of HCT-116 cells versus vehicle group (FIG. 1)", "setting": "HCT-116 cells, MTT, cell viability over time, vehicle max 2% DMSO", "value": "reduced proliferation"}, {"measurement": "IC50", "setting": "Homo sapiens, 72 h, HCT-116 cells, single treatment, 10^-9 to 10^-4 M, 570 nm absorbance, three days results, read-out: IC50 (half-maximal inhibitory concentration), MTT cell proliferation assay", "value": 22, "unit": "µM"}]}
